One molecule from patent US20120149724A1, “MODULATING ENDOGENOUS BETA-ENDORPHIN LEVELS” (THE GENERAL HOSPITAL CORPORATION, priority 2009, published 2012) can be followed below.

“Also recorded” adds a separate entry of the source.

Assay [1] deals with plasma β-endorphin. The experiment in a line: plasma β-endorphin by radioimmunoassay over a tail radiation or mock regimen. Format: in vivo, mice. The text has this:
FIG. 4C illustrates the plasma beta-endorphin fluctuations in the C57BL/6 mice as described in FIGS. 4A and 4B. To obtain the data shown in FIG. 4C, blood was drawn once per week over the 6 week regimen, and for the 2 weeks following. The blood was drawn in the morning prior to the radiation treatment for that day. FIG. 4C uses data obtained by C57BL/6 male mice, 10 mice per treatment group. Mock exposed mice remained stable throughout the regimen.
For all experiments, mice used were in a C57BL/6 background. In all experiments wild type mice were used, and in select experiments mice containing homozygous deletion of the p53 gene (p53−/−) were used. All mice were 8 weeks old at the beginning of each experiment. […] Blood Draws and Preparation for Radioimmunoassay Mice were placed in a standard restrainer. A 30-gauge needle was inserted into the tail vein, and 200 uL of blood was collected in EDTA microvette tubes containing 5 TIU aprotinin. Tubes were maintained on ice at all times. Tubes were spun at 3500 rpm at 4° C. for 20 minutes. Plasma was isolated for β-endorphin measurement by commercially available radioimmunoassay (Phoenix Pharmaceuticals). […]

Assay [2] concerns UV-exposed C57BL/6 mice. Description: pain thresholds (von Frey and hot plate) over daily low-dose UVB exposure. It is filed as in vivo. The note with it: UVB 50 mJ/cm2/day, 5 days/week for 6 weeks, 10 mg/kg ip 15 minutes before testing. As for the experimental part:
To obtain the data shown in FIGS. 7A, 7B and 7C, eight-week-old male C57BL/6 mice were dorsally depilated and either exposed to 50 mJ/cm2/day or mock exposed 5 days/week for 6 weeks. Blood was drawn prior to, once weekly during, and once weekly for 2 weeks following the end of the regimen for β-endorphin measurement. In addition, pain thresholds in both the von Frey and hot plate assay were measured prior to, twice weekly during, and twice weekly for 2 weeks following the end of the regimen. One subgroup of UV-exposed mice and one subgroup of mock-treated mice were injected with naloxone (10 mg/kg, ip) and another subgroup of UV-exposed mice and mock-treated mice were injected with saline (ip) 15 minutes prior to each pain threshold testing. Pain threshold measurements were taken on 2 non-consecutive days and on a different day from the blood draws each week. […] Error bars indicate +/−SEM. […] Error bars indicate +/− standard deviation. […]
Eight-week-old male C57BL/6 mice were dorsally depilated and either exposed to 50 mJ/cm2/day or mock exposed 5 days/week for 6 weeks. […] In addition, pain thresholds in both the von Frey and hot plate assay were measured prior to, twice weekly during, and twice weekly for 2 weeks following the end of the regimen. […]

For assay [3], the system named is chronically UV-irradiated mice. Description: naloxone-induced somatic symptoms of opiate withdrawal after chronic UVB exposure. Format: in vivo. The note with it: UVB 50 mJ/cm^2/day for 6 weeks, 2 mg/kg sc, counted over 25 minutes. The method, then: To obtain the data shown in FIG. 9, mice were either exposed to 50 mJ/cm^2/day UVB radiation, or mock-exposed 5 days per week for 6 weeks. These two groups of mice were divided into subgroups and either injected with a dose of 2 mg/kg naloxone(sc) or saline. […] The symptoms observed include wet dog shake, paw tremor, jumping, grooming, teeth chatter, rearing and diarrhea.
This example assesses physical dependence to opiate agents by evaluating withdrawal symptoms in mice upon acute administration of an opiate antagonist. In mice, symptoms of opiate withdrawal include shaking vigorously (called a “wet-dog shake”), paw tremors, teeth chattering, jumping, rearing, increased grooming, and diarrhea. The occurrence of these symptoms were measured in mice either exposed to 50 mJ/cm^2/day UVB radiation 5 days per week for 6 weeks or mock-exposed on the same schedule. One subgroup of each group of mice was injected with 2 mg/kg subcutaneous naloxone and number of occurrences of each of the above-mentioned symptoms was counted over 25 minutes immediately following naloxone injection. The other subgroup was administered a subcutaneous injection of saline before the 25-minute observation period.

Assay [4] has as its system Sprague-Dawley rats. The experiment in a line: actimetry (locomotor activity) in rats over a daily tail radiation regimen. Format: in vivo. The note with it: 2 Gy/day tail radiation for 6 weeks; 1 mg/kg ip 15 minutes before actimetry. The method, then: Eight week old male Sprague-Dawley rats underwent a 6-week regimen of 2 Gy/day daily tail radiation of mock exposure. Prior to the start of the regimen, baseline activity was recorded as total distance traveled in 30 minutes in the actimetry chamber. During the regimen and for 2 weeks following the end of the regimen, actimetry measurements were made once per week, and for these measurements, half of the tail-irradiated rats and half of the mock-exposed rats were injected with naloxone (1 mg/kg, ip) 15 minutes prior to actimetry testing, and the other half of tail-irradiated and mock-exposed animals were injected with saline (ip) 15 minutes prior to actimetry testing. In addition, blood was drawn prior to, once weekly during, and once weekly for 2 weeks following the end of the regimen for β-endorphin measurement. […] Top graphs show results for tail-irradiated rats, bottom graphs show results for mock-exposed controls. Left side graphs show results for rats injected with saline prior to actimetry testing, right side graphs show results for rats injected with naloxone prior to actimetry testing. […] Error bars indicate +/−SEM, and (*) indicates p<0.05 by two-tailed Student's t-test with respect to baseline values for that group.

For `C=CCN1CC[C@]23c4c5ccc(O)c4O[C@H]2C(=O)CC[C@@]3(O)[C@H]1C5` [naloxone], the “change in plasma beta-endorphin levels” value in assay [1] (mock-exposed mice, 10 mg/kg) was “no increase in plasma beta-endorphin levels”. Also, the “change in plasma β-endorphin” value in assay [1] (tail-irradiated mice, 10 mg/kg before behavioral testing, over the radiation regimen) was “most dramatic increase in plasma β-endorphin; also recorded: elevations in systemic beta-endorphin over and above the elevation caused by tail radiation alone”. In addition, the “effect on UV-induced changes in pain thresholds / opioid-mediated phenotypes” value in assay [2] is on record as “naloxone-reversible; also recorded: reversed”. The jumping behavior entry in assay [3] is listed as “only group to show any jumping behavior at all”. In addition, the “occurrences of wet dog shakes, teeth chattering, paw tremoring, grooming and rearing” value in assay [3] (compared to all other groups) is “significantly more”. The “effect on radiation-induced lethargy (total distance traveled in 30 minutes)” value in assay [4] was “Naloxone-Reversible Lethargy”.
